# Reference: patent US7947854B2, “Bis-cationic compounds and use thereof” (The University of Sydney, priority 2003, dated 2011)
# “And” between values parts separate entries of the source, which are not always exact repeats. Equal values may be shown once.
# How the values were obtained:
# [1] = target: T1, Porcine pancreatic phospholipase A2 (Sus scrofa, UniProt P00592); assay: Pancreatic phospholipase assay; assay type: biochemical; conditions: read-out: ppPLA2, percentage inhibition of activity
# T1 construct: purchased Sigma, St. Louis MO, USA
# T1 sequence (P00592 23-146): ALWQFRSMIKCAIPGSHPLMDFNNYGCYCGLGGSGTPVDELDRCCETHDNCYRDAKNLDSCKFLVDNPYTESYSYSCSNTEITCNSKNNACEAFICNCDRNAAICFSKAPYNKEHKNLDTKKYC
# Description: Pancreatic phospholipase assay. Porcine pancreatic phospholipase A2 suspension in 3.2M ammonium sulfate (2.9 mg protein/mL, Sigma St.Louis Mo., USA) was used. One part of well mixed enzyme suspension was added to 4 parts of buffer (10 mM Tris/HCl, pH 8.2; 10 mM CaCl2. Activity and inhibition by test compounds was then measured by the radiometric method described in Example 2 for fungal PLB activity. However, 25 μL enzyme solution was used, and the reaction time was 1 hour. These conditions result in ˜60% substrate conversion in the inhibitor-free control.
# [2] = tested on: Candida albicans ATCC 10231; assay: Antifungal susceptibility testing, microdilution MIC; assay type: cell-based; conditions: Candida albicans, ATCC10231
# How it was run: (§1)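 Standard microdilution method, run in duplicate, using serial dilutions of cationic compounds.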
# [3] = tested on: Cryptococcus neoformans ATCC 90112; assay: as above; assay type: cell-based; conditions: Cryptococcus neoformans, ATCC90112
# How it was run: as §1
# [4] = tested on: secreted phospholipase B (LPL/LPTA activities); assay: Radiometric assay, secreted LPL and LPTA activities (Lyso assay); assay type: biochemical, Cryptococcus neoformans H99
# Description: Fungal isolates and media. […] Isolate H99 was kindly supplied by Dr. Gary Cox (Duke University Medical Center, Durham, N.C., USA), and subcultured onto Sabouraud dextrose agar (SDA) at 30° C.
# Preparation of supernatants containing secreted phospholipase activities. Isolate H99 was grown to confluence on SDA in 16 cm diameter Petri dishes for 72 h at 30° C. in air. Cells scraped from 10-20 dishes were washed sequentially with isotonic saline and imidazole buffer (10 mM imidazole, 2 mM CaCl2, 2 mM Mg Cl2, 56 mM D-Glucose, made up in isotonic saline, pH 5.5), resuspended in a volume of this buffer of about 10% of the cell volume, and incubated for 24 h at 37° C. The cell-free supernatant was separated by centrifugation as previously described and stored at −70° C.
# (§2) Secreted LPL and LPTA activities were measured simultaneously in a reaction mixture containing 1-[^14C]palmitoyl lyso-PC (25,000 dpm) and carrier lyso-PC (final concentration 200 μM) in assay buffer. The reaction time was […] with 1 μg of total protein and LPL activity was measured by the rate of loss of 1-[^14C]palmitoyl lyso-PC with release of radiolabelled fatty acids. LPTA activity was estimated from the rate of formation of radiolabelled PC.
# All reactions were terminated by adding 0.5 mL of chloroform:methanol (2:1 v/v). The reaction products were extracted by the method as disclosed in Bligh, E. C. and W. J. Dyer. 1959 ‘A rapid method of total lipid extraction and purification.’ Can. J. Biochem. Physiol. 37:911-917, separated by TLC and quantified as previously described. In the case of PLC activity, the TLC plates were developed in petroleum ether (BP 60-80° C.): diethyl ether: acetic acid (90:15:1, v/v/v) instead of chloroform:methanol:water (65:25:4, v/v/v).
# Preparation of inhibitors and use in assays. The following compounds were tested (for structures, see FIG. 2): compound 1, 1,12-bis(tributylphosphonium)dodecane dibromide (Fluka AG, Buchs, Switzerland); compound 2, 1,10-bis(tributylammonium)-decane dibromide; compound 3, 1,12-bis(tributylammonium)do-decane dibromide (both synthesised in-house); compound 4, 1,10-bis(trimethylammonium)decane dibromide [“decamethonium”] (Sigma, St. Louis Mo., USA). All compounds were prepared as stock solutions of 700 μM in assay buffer containing 5 mM EDTA, which was then diluted serially with buffer to obtain solutions of 70, 7, 0.7 and 0.07 μM. In each assay, 45 μL of these solutions was used, and the final volume of 125 μL was made up of substrate, enzyme and buffer. The radiometric assay was carried out as above. Inhibition was calculated as the percent of substrates (DPPC or Lyso-PC) remaining in the case of PLB and LPL activities, or of DPPC produced, in the case of the LPTA activity. The amounts converted, or produced, in the inhibitor-free control were normalised to 100%, and the inhibition calculated against it. All assays were done in triplicate.
# Under these conditions only PLB, LPL and LPTA activities (both secreted and cell-associated) were measured. Initially, compounds deemed to be potential inhibitors were assayed at 25 and 250 μM. Those showing some inhibition were then also assayed at 2.5 and 0.25 μM.
# [5] = tested on: C. neoformans strain H99 phospholipases; assay: Inhibition of C. neoformans strain H99 phospholipases (all enzymes and activities); assay type: biochemical, Cryptococcus neoformans H99
# Description: Radiometric assay method for phospholipases. Enzyme activities were measured as described previously in a final volume of 125 μL at 37° C. For the determination of secreted PLB activity, carrier dipalmitoyl phosphatidylcholine (DPPC, final concentration 800 μM) and 1,2-di[1-^14C] palmitoyl phosphatidylcholine (20,000 dpm) were dried under nitrogen and suspended in 125 mM imidazole acetate buffer (assay buffer, pH 4.0) by sonication using a Branson 450 sonifier. The reaction time was 22 min, using 1 μg total protein and PLB activity was determined by the rate of decrease of the radiolabelled PC substrate, with appearance of the label in free fatty acid. […] These activities were measured by the appearance of radiolabel from PC in Lyso PC, diacylglycerol and phosphatidic acid, respectively.
# as §2, with “LPTA activity was estimated from the rate of formation of radiolabelled PC.” left out
# All reactions were terminated by adding 0.5 mL of chloroform:methanol (2:1 v/v). […] 37:911-917, separated by TLC and quantified as previously described. […]
# [6] = tested on: secreted phospholipase B (PLB activity); assay: Radiometric assay, secreted PLB activity; assay type: biochemical, Cryptococcus neoformans H99; conditions: for PLB, percentage inhibition of activity: Secretory Cryptococcal H99 Phospholipase
# How it was run: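 Secreted enzyme was taken from cell-free supernatant of Cryptococcus isolate H99 cells incubated 24 h at 37° C. Reactions at 37° C, pH 4.0 imidazole acetate, used 800 μM DPPC with [14C]-dipalmitoyl PC and 1 μg protein for 22 min. PLB was measured as radiolabelled PC loss by TLC, with inhibition expressed versus inhibitor-free control; compounds were tested at 25 and 250 μM, then 2.5 and 0.25 μM.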
# [7] = tested on: Fusarium solani 04-132-4207; assay: In vitro antifungal activity, filamentous fungi, NCCLS M38-A; assay type: cell-based; conditions: Fusarium solani, 041324207
# Source text: (§3) The assay used for filamentous fungi (Aspergillus; Scedosporium; Fusarium) was that published by the National Committee for Clinical Laboratory Standards. 2002. Reference Method for Broth Dilution Antifungal Susceptibility Testing of Filamentous Fungi: Approved Standard. NCCLS document M38-A.Villanova, Pa., USA.
# [8] = tested on: Aspergillus fumigatus ATCC 204 305; assay: as above; assay type: cell-based; conditions: Aspergillus fumigatus, ATCC204
# Source text: as §3
# [9] = tested on: Scedosporium apiospermum 1-003-056; assay: as above; assay type: cell-based; conditions: Scedosporium apiospermum, 1003056
# Source text: as §3
# [10] = tested on: Scedosporium prolificans 1-003-040; assay: as above; assay type: cell-based; conditions: Lomentospora prolificans, 1003040
# Source text: as §3
# [11] = tested on: Aspergillus flavus ATCC 204 304; assay: as above; assay type: cell-based; conditions: Aspergillus flavus, ATCC204
# Source text: as §3
# [12] = tested on: Aspergillus terreus ATCC 03-232-378; assay: as above; assay type: cell-based; conditions: Aspergillus terreus, ATCC03
# Source text: as §3
# [13] = tested on: Candida albicans ATCC 10231; assay: In vitro antifungal activity, yeasts, NCCLS M27-A; assay type: cell-based; conditions: Candida albicans, ATCC10231; Table 9
# Source text: (§4) The assay used for yeasts (Candida; Cryptococcus) is that of the National Committee for Clinical Laboratory Standards. 1997. Reference Method for Broth Dilution Antifungal Susceptibility Testing of Yeasts: Approved Standard. NCCLS document M27-A.Villanova, Pa., USA as published in Ghannoum, M. A., A. S. Ibrahim, Y. Fu, M. C. Shafiq, J. E Edwards, Jr. and R. S. Criddle. 1992. Susceptibility testing of Cryptococcus neoformans: A microdilution technique. J. Clin. Microbiol. 30:2881-2886.
# [14] = tested on: Cryptococcus neoformans ATCC 90112; assay: In vitro antifungal activity, yeasts, NCCLS M27-A; assay type: cell-based; conditions: Cryptococcus neoformans, ATCC90112; Table 9
# Source text: as §4
# [15] = tested on: Pseudomonas ariginosa 122; assay: In vitro antibacterial activity, NCCLS M7-A6; assay type: cell-based
# Description: (§5) Two bis-cationic compounds were tested for antibacterial activity. The assay used was that published by the National Committee for Clinical Laboratory Standards. 2003. Methods for Dilution Antimicrobial Susceptibility Tests for Bacteria That Grow Aerobically: Approved Standard—Sixth Edition. NCCLS document M7-A6. Villanova, Pa., USA.
# [16] = tested on: MRSA (methicillin resistant S. aureus); assay: In vitro antibacterial activity, NCCLS M7-A6; assay type: cell-based; conditions: Staphylococcus aureus, read-out: MIC MRSA (methicillin resistant S. aureus)
# Description: as §5
# [17] = tested on: VRE (Vancomycin resistant Enterococcus); assay: In vitro antibacterial activity, NCCLS M7-A6; assay type: cell-based
# Description: as §5
# Escherichia coli 25922 = assay: In vitro antibacterial activity, NCCLS M7-A6; assay type: cell-based
# Description: as §5
# [18] = tested on: Streptococcus pneumonia 49619; assay: In vitro antibacterial activity, NCCLS M7-A6; assay type: cell-based; conditions: Streptococcus pneumoniae
# Description: as §5
# [19] = tested on: Staphylococcus aureus 25923; assay: In vitro antibacterial activity, NCCLS M7-A6; assay type: cell-based
# Description: as §5
# [20] = Table 7, read-out: MIC (μM) C. alb. (10231)
# [21] = Table 7, read-out: MIC (μM) Crypto. (ATCC 90112)
structure (smiles),measurement,setting,value
"C[N+](C)(C)CCCCCCCCCC[N+](C)(C)C [Compound 4, 1,10-bis(trimethylammonium)decane dibromide, reference compound]",inhibition at 2.5 µM,[1],0%
same,inhibition at 25 µM,[1],0%
same,inhibition at 250 µM,[1],0%
same,MIC,"[2]; Table 6, no visible growth after 48 h at 35° C., read-out: MIC C. albicans ATCC 10231",> 350 µM
same,MIC,[2]; [20],≥ 350 µM
same,MIC,"[3]; Table 6, no visible growth after 72 h at 35° C., read-out: MIC C. neof. ATCC 90112",88 µM
same,MIC,[3]; [21],≥ 350 µM
same,Lyso assay (% inhibition) LPL,[4]; 0.25 μM,250 μM = 0% 25 μM = 0% 2.5 μM = 0% 0.25 μM = 0%
same,Lyso assay (% inhibition) LPTA,[4]; 0.25 μM,250 μM = 0% 25 μM = 0% 2.5 μM = 0% 0.25 μM = 0%
same,Lyso assay (% inhibition) LPL,[4]; 2.5 μM,250 μM = 0% 25 μM = 0% 2.5 μM = 0% 0.25 μM = 0%
same,Lyso assay (% inhibition) LPTA,[4]; 2.5 μM,250 μM = 0% 25 μM = 0% 2.5 μM = 0% 0.25 μM = 0%
same,Lyso assay (% inhibition) LPL,[4]; 25 μM,250 μM = 0% 25 μM = 0% 2.5 μM = 0% 0.25 μM = 0%
same,Lyso assay (% inhibition) LPTA,[4]; 25 μM,250 μM = 0% 25 μM = 0% 2.5 μM = 0% 0.25 μM = 0%
same,Lyso assay (% inhibition) LPL,[4]; 250 μM,250 μM = 0% 25 μM = 0% 2.5 μM = 0% 0.25 μM = 0%
same,Lyso assay (% inhibition) LPTA,[4]; 250 μM,250 μM = 0% 25 μM = 0% 2.5 μM = 0% 0.25 μM = 0%
same,"enzyme (phospholipase) inhibition, in words",[5],neither enzyme inhibition
same,PLB assay (% inhibition),[6]; 0.25 μM,250 μM = 0% 25 μM = 0% 2.5 μM = 0% 0.25 μM = 0%
same,PLB assay (% inhibition),[6]; 2.5 μM,250 μM = 0% 25 μM = 0% 2.5 μM = 0% 0.25 μM = 0%
same,"PLB, percentage inhibition of activity",[6]; 2.5 μM,0%
same,PLB assay (% inhibition),[6]; 25 μM,250 μM = 0% 25 μM = 0% 2.5 μM = 0% 0.25 μM = 0%
same,"PLB, percentage inhibition of activity",[6]; 25 μM,0%
same,PLB assay (% inhibition),[6]; 250 μM,250 μM = 0% 25 μM = 0% 2.5 μM = 0% 0.25 μM = 0%
same,"PLB, percentage inhibition of activity",[6]; 250 μM,0%
"CCCC[N+](CCCC)(CCCC)CCCCCCCCCCCCCCCC[N+](CCCC)(CCCC)CCCC [1,16-bis-(tributylammonium)hexadecane]",MIC,[2]; [20],5.5 µM
same,MIC,[3]; [21],2.2 µM
same,MIC,[7],14.6 µg/mL and 22 µM
same,MIC,[8],7.3 µg/mL and 11 µM
same,MIC,[9],3.6 µg/mL and 5.5 µM
same,MIC,[10],7.3 µg/mL and 11 µM
same,MIC,[11],14.6 µg/mL and 22 µM
same,MIC,[12],7.3 µg/mL and 11 µM
same,Lyso assay (% inhibition) LPL,[4]; 25 μM,5%
same,Lyso assay (% inhibition) LPTA,[4]; 25 μM,15%
same,Lyso assay (% inhibition) LPL,[4]; 250 μM,10%
same,Lyso assay (% inhibition) LPTA,[4]; 250 μM,6%
same,PLB assay (% inhibition),[6]; 25 μM,48%
same,PLB assay (% inhibition),[6]; 250 μM,62%
same,MIC,[13],7.2 µg/mL and 11 µM
same,MIC,[14],3.6 µg/mL and 5.5 µM
same,MIC,[15],106 µg/mL and 160 µM
same,MIC,[16],5 µg/mL and 11 µM
same,MIC,[17],3.6 µg/mL and 5.5 µM
"CC1(C)S[C@@H]2[C@H](NC(=O)[C@H](N)c3ccc(O)cc3)C(=O)N2[C@H]1C(=O)O [amoxicillin, reference compound]",MIC,Escherichia coli 25922,8 to 16 mg/L
same,MIC,[18],0.06 to 0.12 mg/L
same,MIC,[19],0.25 to 0.5 mg/L
